# Patent US20150307850A1, “CONDITIONAL REPLICATING VIRAL VECTORS” (priority 2012, published 2015)
# Columns and labels:
# [1] = molecular target: FKBP (Homo sapiens, UniProt P62942, F37V); conditions: F36V FKBP derivative vs wild-type FKBP; cited from earlier work
# [2] = tested on: ARPE-19 cells; test: Shield-1 concentration dependent progeny virus production (TCID50 assay); assay type: cell-based, human; conditions: FKBP derivative fused to UL51 or UL52
# Protocol: FKBP fusion proteins used in this study comprise an essential protein (IE1/2, UL51, UL52, UL79, UL84, UL87, IE1/2-UL51) fused to an FKBP derivative (ddIE1/2, ddUL51, ddUL52, ddUL79, ddUL84, ddUL87, and ddIE1/2-UL51). ARPE-19 cells were infected with the various rdCMV viruses comprising the noted fusion proteins, at a multiplicity of 0.01 PFU/cell for 1 hour, washed twice with fresh medium, and incubated in the growth medium containing 0, 0.05, 0.1 0.5 or 2 μM of Shield-1. Seven days post infection, the cell free virus was collected, and virus titers were determined by TCID50 assay on ARPE-19 cells in the presence of 2 μM of Shield 1.
# Varying concentrations of Shld-1 were used in additional experiments to further assess viral replication in the presence or absence of Shld-1. ARPE-19 cells were infected by the gH expressing CMV that also contained a FKBP derivative fused to an essential protein at MOI of […]. After infection for 1 hour, the cells were washed twice with fresh medium to remove Shld-1. […] Virus titers were determined by a 50% Tissue Culture Infective Dose (TCID50) assay. Briefly, this dilution assay quantifies the amount of virus required to kill 50% of infected hosts. […] After incubation, the percentage of cell death (i.e. infected cells) was manually observed and recorded for each virus dilution. […]
# Sequence of FKBP (P62942 2-108 F37V limits assumed): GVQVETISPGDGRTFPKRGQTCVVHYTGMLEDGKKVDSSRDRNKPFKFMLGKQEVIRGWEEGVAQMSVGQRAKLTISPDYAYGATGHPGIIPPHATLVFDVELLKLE
smiles,measurement,setting,value
CC[C@H](C(=O)N1CCCC[C@H]1C(=O)O[C@H](CCc1ccc(OC)c(OC)c1)c1cccc(OCCN2CCOCC2)c1)c1cc(OC)c(OC)c(OC)c1 [Shield-1],Binding to the F36V derivative compared to wild-type FKBP (tighter),[1],"about 1,000 fold"
same,Shield-1 concentration that can effectively turn on or off viral replication,[2],50 nM
